Laboratory results: patent US6818407B2, “Anti-endotoxic antimicrobial cationic peptides and methods of use therfor” (priority 1998, dated 2004)

Assays:
[1] = system: mutant (Nal B, H744) of P. aeruginosa; test: microbe, parasite or virus in culture; format: cell-based
Procedure, shortened: (§1)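 Checkerboard titration in Mueller Hinton broth, peptide against carbenicillin or ciprofloxacin, inoculum 10 μl of 10^−4 dilution of overnight culture, 18-24 h at 37 °C. Combination MIC is the lowest concentration reducing growth >50%. FIC index = A/MIC A + B/MIC B, with ≤~0.5 synergy, 1.0 additivity, >1.0 antagonism.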

[2] = system: β-lactamase derepressed mutant (H547) of P. aeruginosa; test: microbe, parasite or virus in culture; format: cell-based; details: P. aeruginosa H547
Procedure, shortened: as §1

P. aeruginosa (H103) = test: Synergy study (checkerboard titration) with hen white lysozyme; format: cell-based
E. coli [3] = test: as above; format: cell-based
Salmonella typhi = test: as above; format: cell-based
S. aureus K147 = test: MIC, broth microdilution assay in polypropylene microtiter trays; format: cell-based; details: average of three separate experiments
Procedure, shortened: (§2)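 Read-out: OD. MIC = lowest peptide conc. giving no OD change over the defined time.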

P. aeruginosa = test: as above; format: cell-based; details: average of three separate experiments
Procedure, shortened: as §2

E. coli [4] = test: as above; format: cell-based; details: average of three separate experiments
Procedure, shortened: as §2

S. aureus = test: as above; format: cell-based; details: average of three separate experiments
Procedure, shortened: as §2

[5] = system: Pseudomonas aeruginosa strain M2; test: Protection of neutropenic CD-1 mice challenged with Pseudomonas aeruginosa; format: in vivo; design: Survival post bacterial challenge, surviving mice: reference not given here; details: for Survival (%) post bacterial challenge: PBS 8
Procedure, shortened: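 Neutropenia induced by three i.p. cyclophosphamide doses ([…], alternate days); mice then infected i.p. with 200-300 organisms/mouse. Peptides (200 µg/mouse = 8 mg/kg) in buffered citrate given i.p. at 30 min (single) or 30 min and 16 hrs (double) post-challenge; PBS control; mean of 2 experiments.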

[6] = cationic peptide concentration, combined with lysozyme
[7] = lysozyme concentration, combined with the peptide

## CC[C@H](C)[C@H](NC(=O)CNC(=O)[C@@H](NC(=O)[C@H](CCCCN)NC(=O)[C@H](CCCCN)NC(=O)[C@@H](NC(=O)[C@H](Cc1ccccc1)NC(=O)[C@H](CCCCN)NC(=O)[C@H](CCCCN)NC(=O)[C@H](Cc1c[nH]c2ccccc12)NC(=O)[C@@H](N)CCCCN)[C@@H](C)CC)[C@@H](C)CC)C(=O)NCC(=O)N[C@@H](C)C(=O)N[C@H](C(=O)N[C@@H](CC(C)C)C(=O)N[C@@H](CCCCN)C(=O)N[C@H](C(=O)N[C@@H](CC(C)C)C(=O)N[C@H](C(=O)N[C@H](C(=O)NCC(=O)N[C@@H](CC(C)C)C(=O)N1CCC[C@H]1C(=O)N[C@@H](C)C(=O)N[C@@H](CC(C)C)C(=O)N[C@@H](CCCCN)C(=O)N[C@@H](CC(C)C)C(=O)N[C@H](C(=O)N[C@@H](CCCCN)C(=O)N[C@@H](CCCCN)C(=O)O)[C@@H](C)O)[C@@H](C)O)[C@@H](C)O)C(C)C)C(C)C [CPα2]
[1]; ciprofloxacin with peptide at concentration (A), Nal B, H744
  (B) MIC of Cipro when combined with peptide: .125 µg/mL
[1]; peptide + ciprofloxacin, Nal B, H744
  FIC index: .75
[1]; peptide alone, P. aeruginosa mutant Nal B, H744 (Table 5)
  MIC A MIC of Peptides: 2 µg/mL
[1]; peptide concentration in combination with ciprofloxacin, Nal B, H744
  (A) Peptide doses together with Cipro: 1 µg/mL
[2]; Carbenicillin with peptide at concentration (A)
  (B) MIC of Carb when combined with peptide: 32 µg/mL
[2]; peptide + Carbenicillin, about 0.5 or less synergy, 1.0 additivity, >1.0 antagonism
  FIC index: 1.0
[2]; peptide alone
  MIC A MIC of Peptides: 2 µg/mL
[2]; peptide concentration in combination with Carbenicillin
  (A) Peptide doses together with Carb: 1 µg/mL
P. aeruginosa (H103)
  FIC for combination of cationic peptide and lysozyme: 0.56
P. aeruginosa (H103); [6]
  Lowest [CP] showing synergy: 10.4 µg/mL
P. aeruginosa (H103); [7]
  Lowest [Lyso] showing synergy: 62.5 µg/mL
E. coli [3]
  FIC for combination of cationic peptide and lysozyme: 0.31
E. coli [3]; [6]
  Lowest [CP] showing synergy: 0.65 µg/mL
E. coli [3]; [7]
  Lowest [Lyso] showing synergy: 7.8 µg/mL
Salmonella typhi
  FIC for combination of cationic peptide and lysozyme: 0.63
Salmonella typhi; [6]
  Lowest [CP] showing synergy: 2.61 µg/mL
Salmonella typhi; [7]
  Lowest [Lyso] showing synergy: 125 µg/mL
S. aureus K147
  MIC S. aureus K147: 16 µg/mL
P. aeruginosa
  MIC P. aeruginosa: 6 µg/mL
E. coli [4]
  MIC E. coli: 2 µg/mL
S. aureus
  MIC S. aureus: 16 µg/mL
[5]; double dose (200 μg per mouse i.p. at 30 min and 16 hrs), 16 hr
  Survival post bacterial challenge, surviving mice: 13
[5]; double dose, 24 hr
  Survival post bacterial challenge, surviving mice: 13
[5]; double dose, 41 hr
  Survival post bacterial challenge, surviving mice: 12
[5]; double dose, 48 hr
  Survival post bacterial challenge, surviving mice: 9
[5]; double dose, 64 hr
  Survival post bacterial challenge, surviving mice: 6
  Survival (%) post bacterial challenge: 46%
[5]; double dose, 72 hr
  Survival post bacterial challenge, surviving mice: 6
  Survival (%) post bacterial challenge: 46%
[5]; double dose, 96 hr
  Survival post bacterial challenge, surviving mice: 5
  Survival (%) post bacterial challenge: 38%
[5]; single dose (200 μg per mouse i.p. at 30 min), 16 hr
  Survival post bacterial challenge, surviving mice: 15
[5]; single dose, 24 hr
  Survival post bacterial challenge, surviving mice: 15
[5]; single dose, 41 hr
  Survival post bacterial challenge, surviving mice: 13
[5]; single dose, 48 hr
  Survival post bacterial challenge, surviving mice: 13
[5]; single dose, 64 hr
  Survival post bacterial challenge, surviving mice: 13
  Survival (%) post bacterial challenge: 86%
[5]; single dose, 72 hr
  Survival post bacterial challenge, surviving mice: 12
  Survival (%) post bacterial challenge: 80%
[5]; single dose, 96 hr
  Survival post bacterial challenge, surviving mice: 12
  Survival (%) post bacterial challenge: 80%
